Measurements as given in ChEMBL document CHEMBL3046966, “Structure and Fungicidal Activities of 2-Methoxyimino-N-methyl-2-[2-(substituted pyridyloxymethyl)phenyl]acetamide Derivatives” (1998).

What was measured:
Format in all cases: functional
Pyricularia oryzae [1] = experiment: Fungicidal activity against Magnaporthe oryzae assessed as rice blast disease control at 125 ppm foliar application for 24 hr after inoculation by curative manner
[2] = test system: Blumeria graminis f. sp. tritici; experiment: Fungicidal activity against Blumeria graminis f. sp. tritici assessed as wheat powdery mildew disease control at 125 ppm foliar application for 24 hr after inoculation by curative manner
Pyricularia oryzae [3] = experiment: Fungicidal activity against Magnaporthe oryzae assessed as rice blast disease control at 125 ppm foliar application for 24 hr before inoculation by preventive manner
Podosphaera fuliginea [4] = experiment: Fungicidal activity against Podosphaera fuligineas assessed as cucumber […] mildew disease control at 125 ppm foliar application 24 hr before inoculation by preventive manner
[5] = test system: Blumeria graminis f. sp. tritici; experiment: Fungicidal activity against Blumeria graminis f. sp. tritici assessed as wheat powdery mildew disease control at 125 ppm foliar application for 24 hr before inoculation by preventive manner
Botrytis cinerea [6] = experiment: Fungicidal activity against Botryotinia fuckeliana assessed as cucumber gray mold disease control at 125 ppm foliar application 24 hr after inoculation by curative manner
Podosphaera fuliginea [7] = experiment: Fungicidal activity against Podosphaera fuligineas assessed as cucumber […] mildew disease control at 125 ppm foliar application 24 hr after inoculation by curative manner
[8] = test system: Pseudoperonospora cubensis; experiment: Fungicidal activity against Pseudoperonospora cubensis assessed as cucumber downy mildew disease control at 7.8 ppm foliar application 24 hr after inoculation by curative manner
[9] = test system: Pseudoperonospora cubensis; experiment: Fungicidal activity against Pseudoperonospora cubensis assessed as cucumber downy mildew disease control at 125 ppm foliar application 24 hr after inoculation by preventive manner
Botrytis cinerea [10] = experiment: Fungicidal activity against Botryotinia fuckeliana assessed as cucumber gray mold disease control at 125 ppm foliar application 24 hr before inoculation by preventive manner
Botrytis cinerea [11] = experiment: Fungicidal activity against Botryotinia fuckeliana assessed as cucumber gray mold disease control at 2 ppm foliar application 24 hr after inoculation by curative manner
Botrytis cinerea [12] = experiment: Fungicidal activity against Botryotinia fuckeliana assessed as cucumber gray mold disease control at 31.3 ppm foliar application 24 hr before inoculation by preventive manner
[13] = test system: Pseudoperonospora cubensis; experiment: Fungicidal activity against Pseudoperonospora cubensis assessed as cucumber downy mildew disease control at 31.3 ppm foliar application 24 hr after inoculation by preventive manner
Pyricularia oryzae [14] = experiment: Fungicidal activity against Magnaporthe oryzae assessed as rice blast disease control at 7.8 ppm foliar application for 24 hr after inoculation by curative manner
[15] = test system: Blumeria graminis f. sp. tritici; experiment: Fungicidal activity against Blumeria graminis f. sp. tritici assessed as wheat powdery mildew disease control at 7.8 ppm foliar application for 24 hr before inoculation by preventive manner
Pyricularia oryzae [16] = experiment: Fungicidal activity against Magnaporthe oryzae assessed as rice blast disease control at 31.3 ppm foliar application for 24 hr before inoculation by preventive manner
Podosphaera fuliginea [17] = experiment: Fungicidal activity against Podosphaera fuligineas assessed as cucumber […] mildew disease control at 7.8 ppm foliar application 24 hr after inoculation by curative manner
[18] = test system: Blumeria graminis f. sp. tritici; experiment: Fungicidal activity against Blumeria graminis f. sp. tritici assessed as wheat powdery mildew disease control at 7.8 ppm foliar application for 24 hr after inoculation by curative manner
Podosphaera fuliginea [19] = experiment: Fungicidal activity against Podosphaera fuligineas assessed as cucumber […] mildew disease control at 7.8 ppm foliar application 24 hr before inoculation by preventive manner
[20] = test system: Pseudoperonospora cubensis; experiment: Fungicidal activity against Pseudoperonospora cubensis assessed as cucumber downy mildew disease control at 125 ppm foliar application 24 hr after inoculation by curative manner
[21] = test system: Pseudoperonospora cubensis; experiment: Fungicidal activity against Pseudoperonospora cubensis assessed as cucumber downy mildew disease control at 2 ppm foliar application 24 hr after inoculation by curative manner
Podosphaera fuliginea [22] = experiment: Fungicidal activity against Podosphaera fuligineas assessed as cucumber […] mildew disease control at 2 ppm foliar application 24 hr before inoculation by preventive manner
[23] = test system: Blumeria graminis f. sp. tritici; experiment: Fungicidal activity against Blumeria graminis f. sp. tritici assessed as wheat powdery mildew disease control at 2 ppm foliar application for 24 hr before inoculation by preventive manner
Podosphaera fuliginea [24] = experiment: Fungicidal activity against Podosphaera fuligineas assessed as cucumber […] mildew disease control at 2 ppm foliar application 24 hr after inoculation by curative manner
Botrytis cinerea [25] = experiment: Fungicidal activity against Botryotinia fuckeliana assessed as cucumber gray mold disease control at 7.8 ppm foliar application 24 hr before inoculation by preventive manner
Podosphaera fuliginea [26] = experiment: Fungicidal activity against Podosphaera fuligineas assessed as cucumber […] mildew disease control at 31.3 ppm foliar application 24 hr after inoculation by curative manner
Podosphaera fuliginea [27] = experiment: Fungicidal activity against Podosphaera fuligineas assessed as cucumber […] mildew disease control at 31.3 ppm foliar application 24 hr before inoculation by preventive manner
Pyricularia oryzae [28] = experiment: Fungicidal activity against Magnaporthe oryzae assessed as rice blast disease control at 31.3 ppm foliar application for 24 hr after inoculation by curative manner

Row | SMILES | Activity (Pyricularia oryzae [1]) [%] | Activity [2] [%] | Activity (Pyricularia oryzae [3]) [%] | Activity (Podosphaera fuliginea [4]) [%] | Activity [5] [%] | Activity (Botrytis cinerea [6]) [%] | Activity (Podosphaera fuliginea [7]) [%] | Activity [8] [%] | Activity [9] [%] | Activity (Botrytis cinerea [10]) [%] | Activity [13] [%] | Activity (Podosphaera fuliginea [17]) [%] | Activity [18] [%] | Activity [20] [%] | also measured
1 | CNC(=O)/C(=N/OC)c1ccccc1COc1cc(C(F)(F)F)cc(Cl)n1 | <90 | 90 | 90 | 90 | 90 | <90 | 90 | 90 | <90 | <90 | – | – | – | – | –
2 | CNC(=O)/C(=N/OC)c1ccccc1COc1ncccc1Cl | – | – | – | – | – | – | – | 90 | – | – | 90 | 90 | 90 | – | Activity (Botrytis cinerea [11]): 90%; Activity (Botrytis cinerea [12]): 90%; Activity (Pyricularia oryzae [14]): 90%; Activity [15]: 90%; Activity (Pyricularia oryzae [16]): 90%; Activity (Podosphaera fuliginea [19]): 90%
3 | CNC(=O)/C(=N/OC)c1ccccc1COc1nc(Cl)c(Cl)c(C(F)(F)F)c1Cl | – | <90 | <90 | 90 | <90 | <90 | 90 | – | – | – | – | – | – | 90 | –
4 | CNC(=O)/C(=N/OC)c1ccccc1COc1cc(C(F)(F)F)nc(C(F)(F)F)c1 | – | <90 | <90 | <90 | <90 | – | <90 | – | <90 | <90 | – | – | – | 90 | –
5 | CNC(=O)/C(=N/OC)c1ccccc1COc1nc(Cl)c(C(F)(F)F)cc1C(F)(F)F | <90 | – | 90 | – | – | 90 | – | – | – | – | – | 90 | 90 | <90 | Activity [21]: 90%; Activity (Podosphaera fuliginea [22]): 90%; Activity (Botrytis cinerea [12]): 90%; Activity [23]: 90%
6 | CNC(=O)/C(=N/OC)c1ccccc1COc1ccc(C(F)(F)F)c(OC)n1 | 90 | – | 90 | – | 90 | 90 | – | – | – | – | 90 | – | 90 | – | Activity [21]: 90%; Activity (Podosphaera fuliginea [22]): 90%; Activity (Podosphaera fuliginea [24]): 90%; Activity (Botrytis cinerea [25]): 90%
7 | CNC(=O)/C(=N/OC)c1ccccc1COc1cccc(SC)n1 | – | <90 | <90 | – | 90 | <90 | – | 90 | 90 | 90 | – | – | – | – | Activity (Podosphaera fuliginea [26]): 90%; Activity (Podosphaera fuliginea [27]): 90%
8 | CNC(=O)/C(=N/OC)c1ccccc1COc1ccc(C(F)(F)F)cn1 | – | – | – | – | – | – | – | 90 | – | – | 90 | 90 | 90 | – | Activity (Botrytis cinerea [11]): 90%; Activity (Podosphaera fuliginea [27]): 90%; Activity [15]: 90%; Activity (Pyricularia oryzae [16]): 90%; Activity (Botrytis cinerea [25]): 90%; Activity (Pyricularia oryzae [28]): 90%
9 | CNC(=O)/C(=N/OC)c1ccccc1COc1cccc(C(F)(F)F)n1 | – | – | – | – | – | 90 | – | – | – | – | 90 | 90 | 90 | – | Activity [21]: 90%; Activity (Botrytis cinerea [12]): 90%; Activity (Pyricularia oryzae [14]): 90%; Activity (Pyricularia oryzae [16]): 90%; Activity [23]: 90%; Activity (Podosphaera fuliginea [19]): 90%
10 | CNC(=O)/C(=N\OC)c1ccccc1COc1ccccn1 | – | <90 | <90 | <90 | 90 | – | <90 | – | – | <90 | – | – | – | <90 | –
11 | CNC(=O)/C(=N/OC)c1ccccc1COc1ccc(C(F)(F)F)c(NC)n1 | <90 | 90 | <90 | – | – | 90 | – | 90 | 90 | 90 | – | 90 | – | – | Activity (Podosphaera fuliginea [19]): 90%
